SMILES strings stand for the structures. Like-named read-outs stand apart in the source and are kept apart here.

Data set [1] relates to human PBMNCs cultured under BFU-E-stimulating conditions. Put plainly: HALO apoptosis measurement (ADP:ATP ratio) of PBMNCs under BFU-E-stimulating conditions. It counts as cell-based. As for the experimental part:
Fresh human PBMNCs were cultured under BFU-E-stimulating conditions, together with 3 concentrations of DOX, namely 1 ng/ml (low), 10 ng/ml (medium) and 100 ng/ml (high) as per a typical HALO test procedure. Replicate plates were used so that the effects of DOX could be examined at 2 time points, namely days 3 and 7. At each time point, using the APOGLOW™ detection kit (Cambrex BioScience), ATP releasing reagent and ATP luminescence-monitoring reagent were added and the luminescence read immediately. A second luminescence reading was taken when the nadir ATP value occurred. At this point an ADP converting reagent (ADP-CR) was then added, which converts ADP to ATP and the luminescence measured when the conversion reached a plateau. From these 3 measurements ADP-.ATP ratio was determined. FIG. 15A and 15B show the mean RLU values for each of the DOX concentrations measured at the 2 time points. […]
Cell proliferation and apoptosis can actually be performed in a single read by performing HALO as described above, but then instead of measuring only ATP, adenosine diphosphate (ADP) is also measured, as shown in FIGS. 15 and 16. […]
In the HALO methods that form the basis of the kits of the present invention, ATP is released from the cells using ATP releasing reagent and a 15 min incubation. Thereafter, the ATP luminescence-monitoring reagent is added and the plates read immediately. […]

Data set [2] has the same test system. Put plainly: HALO cell proliferation (luminescence) of PBMNCs under BFU-E-stimulating conditions. It counts as cell-based. The settings on record: days 3 and 7. As for the experimental part:
Fresh human PBMNCs were cultured under BFU-E-stimulating conditions, together with 3 concentrations of DOX, namely 1 ng/ml (low), 10 ng/ml (medium) and 100 ng/ml (high) as per a typical HALO test procedure. Replicate plates were used so that the effects of DOX could be examined at 2 time points, namely days 3 and 7. At each time point, using the APOGLOW™ detection kit (Cambrex BioScience), ATP releasing reagent and ATP luminescence-monitoring reagent were added and the luminescence read immediately. A second luminescence reading was taken when the nadir ATP value occurred. At this point an ADP converting reagent (ADP-CR) was then added, which converts ADP to ATP and the luminescence measured when the conversion reached a plateau. From these 3 measurements ADP-.ATP ratio was determined. FIG. 15A and 15B show the mean RLU values for each of the DOX concentrations measured at the 2 time points. […] On day 3, the increase in ADP:ATP ratio is due to apoptosis of cells with low proliferative capacity.

Data set [3] deals with mouse HPP-SP. The text has this:
(§1) Depending on the type and size of the HALO kit used, all of the culture components required, with the exception of the cells, are included. A typical HALO kit contains the 3 component mixes required to culture cells: • 1. Serum component mix (Mix 1): contains fetal bovine serum (FBS), bovine serum albumin (BSA), transferring and insulin. • 2. Methyl cellulose mix (Mix 2): contains methylcellulose and alph-thioglycerol. • 3. Growth factor mix (Mix 3): contains the type and number of growth factors depending on the cell population being stimulated. • 4. Target cells as prepared in step 1 above: different cell types are available from peripheral blood, bone marrow, or umbilical cord blood (humans) procured from human, non-human primate, dog, rat, or mouse. • Methyl cellulose provided: Methyl cellulose is a viscous, water soluble, semi-solid medium for immobilizing cells. The amount of methyl cellulose provided is for the number of 96-well plates determined by the kit. However, if dispensed carefully, there is sufficient methyl cellulose so that several smaller experiments can be performed using the plate(s) provided. • Dispensing individual component mixes and reagents: A repeater pipette may be used which uses a positive-displacement syringe is used to dispense the methyl cellulose mix. • Dispensing the master mix: Once all the component mixes have been added together, use a repeater pipette to dispense the master mix into individual wells. Using normal syringes with needles may result in inaccurate dispensing and greater variation between replicate wells. • Number of replicates performed: At least 4 replicates per culture point are preferred. Plate configuration: The configuration of the 96-well plate for an experiment is arbitrary. However, the number of replicates and the way in which the reagents required to measure luminescence are added, will determine the plate configuration. For example, if performing 4 or 8 replicates per culture point, we recommend configuring the plate in columns, that is, A1 to DI and EI to HI etc. for quadruplicate cultures and A1 to HI, A2 to 112 etc. for 8-replicate cultures are possible. If performing 6 or 12 replicates, we recommend configuring the plate, in rows, that is, A1-A6 and A7 to A12 for 6 replicates and A1-A12, BL to—813 for 12 replicates are possible. If performing column replicates, addition of the ATP releasing reagent and ATP luminescence-monitoring reagent can be performed using an 8-channel pipette from left to right across the plate. If performing row replicates, an 8- or 12-channel pipette can be used to dispense the reagents from the top to the bottom of the plate. To calculate the quantities of reagents required: • 1. Determine the-number of sample categories required for testing and the number of replicates for each sample. • 2. Multiply the number of sample categories by the number of replicates to obtain the number of wells to be used.
(§2) Before adding the target cells, ensure that a single cell suspension has been prepared. • 6. Mix the contents of the tube vigorously to obtain a homogenous master mix. • 7. To ensure that as little master mix as possible remains on the walls of the tube perform a quick spin in a centrifuge to 500 rpm and then let the centrifuge spin down. […] Dispense 100 μl of the reagent master mix into each of the replicate wells. This can be performed with a syringe and needle, but a repeater pipette is recommended for ease of use, reproducibility and to reduce variation. • 9. Transfer the culture plate to a 37 Celsius, fully humidified incubator with an atmosphere of 5% CO2. If possible, use an incubator gassed with 95% nitrogen in order to reduce the atmospheric oxygen concentration of 5% O2 since this helps increase the plating efficiency. • 10.
(§3) The addition of ATP releasing reagent and ATP luminescence-monitoring reagent is performed is the same manner as that for ATP. • 1.

Data set [4] relates to human HPP-SP.
Source text: as §1, §2, §3

Data set [5] has as its system mouse T-CFC. Put plainly: HALO 7-population hemotoxicology, mouse T-CFC. It counts as cell-based. The procedure:
(§4) To calculate the quantities of reagents required: • 1.
(§5) (See (iv) Adhesive Plate Covering Film above). • 3. […] Repeat this procedure a total of 4 times. Mixing is very important. • 4.
(§6) Luminescence is measured in relative luminescence units or RLU.

Data set [6] has as its system mouse hematopoietic lineages. It counts as cell-based. The procedure: as §4, §5, §6
Data set [7] relates to progenitor cell populations. Put plainly: HALO 7-population hemotoxicology, progenitor cell populations (hematopoietic lineages). It counts as cell-based. As for the experimental part:
as §4, §5, §6

The subject of data set [8] is CFC-GEMM stem cells. Put plainly: HALO 7-population hemotoxicology, CFC-GEMM. It counts as cell-based. The conditions noted are these: species not stated. The procedure:
as §4, §5, §6

The subject of data set [9] is human hematopoietic lineages. The data set is described as follows: HALO 7-population hemotoxicology, human hematopoietic lineages. It counts as cell-based. As for the experimental part:
as §4, §5, §6

The subject of data set [10] is lymphopoietic cell populations.
Source text: as §1, §2, §3

In data set [11] the test system is human CFC-GEMM.
Source text: as §1, §2, §3

In data set [12] the test system is mouse CFC-GEMM.
Source text: as §1, §2, §3

For data set [13], the system named is BFU-E. Put plainly: HALO 7-population hemotoxicology, BFU-E (erythropoietic lineage). It counts as cell-based. As for the experimental part:
as §4, §5, §6

The test system of data set [14] is HPP-SP stem cells. Put plainly: HALO 7-population hemotoxicology, HPP-SP. It counts as cell-based. The conditions noted are these: species not stated. As for the experimental part: as §4, §5, §6
Data set [15] relates to primitive and mature stem cell populations. The data set is described as follows: HALO 7-population hemotoxicology, primitive and mature stem cell populations. The conditions noted are these: FIG. 17A. It counts as cell-based. As for the experimental part: as §4, §5, §6
Data set [16] relates to mouse B-CFC. The data set is described as follows: HALO 7-population hemotoxicology, mouse B-CFC. It counts as cell-based. The procedure:
as §4, §5, §6

For `COc1cccc2c1C(=O)c1c(O)c3c(c(O)c1C2=O)C[C@@](O)(C(=O)CO)C[C@@H]3O[C@H]1C[C@H](N)[C@H](O)[C@H](C)O1` [DOX, doxorubicin], the “effect on ADP:ATP ratio” value in data set [1] (day 3) is reported as “increase”. In addition, in data set [1] (day 7), the “apoptosis of BFU-E and immediate progeny” value is “induced into apoptosis”. In addition, the figures for the “effect on mean RLU (luminescence)” value in [2] (1 ng/ml (low)), in [2] (10 ng/ml (medium)) and in data set [2] (100 ng/ml (high)) were “little or no effect”, “decrease the luminescence” and “decrease the luminescence”, respectively.

On to `CN(C)C=O` [N,N-dimethylformamide], for which the “effect on mouse HPP-SP” value in data set [3] (mouse) is “stimulated”. Moreover, the “effect on human HPP-SP” value in data set [4] (human) is recorded as “effected”. Moreover, in [5], the “effect on mouse T-CFC” value is given as “stimulation”. For the same molecule, in data set [6], the “effect on mouse hematopoietic lineages” value is “effected”.

As for `c1ccccc1` [benzene], the “effect on progenitor cells / hematopoietic lineages” value in data set [7] is “hematopoietic suppression”. In addition, in data set [8], the “effect on CFC-GEMM stem cells” value is “acts at the CFC-GEMM level”.

As to `[Cl][Cd][Cl]` [cadmium chloride], the “effect on human hematopoietic lineages” value in data set [9] is recorded as “decrease”. In data set [10] (T-CFC & B-CFC), the “effect on lymphopoietic cells / lymphopoietic lineages” value is “decrease”. In addition, the “effect on human CFC-GEMM” value in data set [11] (human) is listed as “decrease”. Moreover, the “effect on mouse HPP-SP” value in [3] (mouse) is given as “decrease”. Moreover, the “effect on human HPP-SP” value in data set [4] (human) is given as “decrease”. Also, in data set [12] (mouse), the “effect on mouse CFC-GEMM” value is listed as “no effect”. Also, the “effect on mouse hematopoietic lineages” value in [6] is on record as “decrease”.

For `O=C(N[C@H](CO)[C@H](O)c1ccc([N+](=O)[O-])cc1)C(Cl)Cl` [chloramphenicol], the “effect on erythroid elements” value in data set [13] (erythropoietic lineage) is given as “decrease”. Also, the “effect on BFU-E” value in data set [13] (species not stated) is recorded as “specifically inhibited”. For the same molecule, the “effect on lymphopoietic cells / lymphopoietic lineages” value in [10] (T-CFC & B-CFC) is listed as “stimulation”. Further, the “effect on HPP-SP stem cells” value in data set [14] was “Stimulation”. Also, the “effect on CFC-GEMM stem cells” value in [8] is given as “no effect”.

`CCn1cc(C(=O)O)c(=O)c2ccc(C)nc21` [naladixic acid]: the “effect on progenitor cells / hematopoietic lineages” value in [7] is on record as “No demonstrable effect”. The “effect on lymphopoietic cells / lymphopoietic lineages” value in [10] (T-CFC & B-CFC) is on record as “No demonstrable effect”. The “effect on stem cells” value in [15] is reported as “No demonstrable effect”.

On to `Nc1ccc(N)cc1` [p-phenelenediamine], for which, in [3] (mouse), the “effect on mouse HPP-SP” value is given as “decrease”. Further, the “effect on mouse B-CFC” value in [16] is “decrease”. Besides, in [5], the “effect on mouse T-CFC” value is “decrease”.

For `[Na+].[Na+].[O]=[Cr](=[O])([O-])[O][Cr](=[O])(=[O])[O-]` [sodium dichromate], in data set [7], the “effect on progenitor cells / hematopoietic lineages” value is “inhibition”. The “effect on lymphopoietic cells / lymphopoietic lineages” value in data set [10] is given as “inhibition”. In addition, in data set [11], the “effect on human CFC-GEMM” value was “inhibited”. In addition, in [3], the “effect on mouse HPP-SP” value was “inhibited”. Besides, the “effect on human HPP-SP” value in [4] is reported as “inhibited”. Further, the “effect on mouse CFC-GEMM” value in data set [12] was “inhibited”.

(Values after patent publication US20080248503A1, “Methods of Screening Compounds to Predict Toxicity and Residual Proliferative and Differentiation Capacity of the Lympho-Hematopoietic System” (priority 2005, published 2008).)
